According to publication PMC8219695 (Nature Communications, 2021):
“And” between values parts separate entries of the source, which are not always exact repeats. Identical values can stand only once.

Experiments:
[1] = target: T1, hMOR (Homo sapiens, UniProt P35372); assay: CAMYEL BRET cAMP agonist assay at hMOR; assay type: cell-based; settings: for cAMP %: hMOR, single replicates, source data Fig 6c, listed as C11-Cl-7OH (23)
T1 construct: expressed in transfected cells; plasmid a gift from Dr. Nevin Lambert
T1 sequence (P35372 whole entry): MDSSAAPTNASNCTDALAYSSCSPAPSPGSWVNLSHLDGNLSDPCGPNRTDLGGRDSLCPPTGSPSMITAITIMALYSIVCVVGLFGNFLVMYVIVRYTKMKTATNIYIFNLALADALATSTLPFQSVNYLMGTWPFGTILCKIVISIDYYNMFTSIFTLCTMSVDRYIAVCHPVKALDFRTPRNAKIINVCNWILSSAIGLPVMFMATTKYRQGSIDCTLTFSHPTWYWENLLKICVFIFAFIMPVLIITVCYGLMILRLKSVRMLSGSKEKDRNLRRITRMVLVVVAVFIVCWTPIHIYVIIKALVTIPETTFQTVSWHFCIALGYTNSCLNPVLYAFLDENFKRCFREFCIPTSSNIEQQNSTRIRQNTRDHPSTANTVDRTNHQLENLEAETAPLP

[2] = target: T2, mDOR (Mus musculus, UniProt P32300); assay: [125I]BNtxA radioligand competition binding, mouse DOR; settings: mean ± SEM, n = 3; [125I]BNtxA; read-out: Ki ± SEM mDOR
T2 construct: expressed in transfected cells
T2 sequence (P32300 whole entry): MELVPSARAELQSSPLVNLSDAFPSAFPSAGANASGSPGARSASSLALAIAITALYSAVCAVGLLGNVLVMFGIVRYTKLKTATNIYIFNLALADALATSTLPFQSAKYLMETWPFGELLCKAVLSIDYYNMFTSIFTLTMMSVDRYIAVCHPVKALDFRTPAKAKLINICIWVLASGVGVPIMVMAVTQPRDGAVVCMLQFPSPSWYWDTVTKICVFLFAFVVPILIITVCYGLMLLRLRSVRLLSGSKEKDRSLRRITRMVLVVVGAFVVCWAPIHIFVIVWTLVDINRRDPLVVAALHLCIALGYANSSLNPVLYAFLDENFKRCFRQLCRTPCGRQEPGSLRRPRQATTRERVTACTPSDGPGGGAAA

[3] = system: CD1 mice; assay: Tail-flick antinociception in CD1 mice; assay type: in vivo, mouse; settings: 5 or 25 mg/kg s.c., CD1 mice, time course
[4] = target: hDOR (Homo sapiens, UniProt P41143); assay: CAMYEL BRET cAMP agonist assay at hDOR; assay type: cell-based; settings: for Agonist activity of 7OH analogs at hDOR: single replicate values, Supplementary Figure 7A
Chain of hDOR (P41143 whole entry): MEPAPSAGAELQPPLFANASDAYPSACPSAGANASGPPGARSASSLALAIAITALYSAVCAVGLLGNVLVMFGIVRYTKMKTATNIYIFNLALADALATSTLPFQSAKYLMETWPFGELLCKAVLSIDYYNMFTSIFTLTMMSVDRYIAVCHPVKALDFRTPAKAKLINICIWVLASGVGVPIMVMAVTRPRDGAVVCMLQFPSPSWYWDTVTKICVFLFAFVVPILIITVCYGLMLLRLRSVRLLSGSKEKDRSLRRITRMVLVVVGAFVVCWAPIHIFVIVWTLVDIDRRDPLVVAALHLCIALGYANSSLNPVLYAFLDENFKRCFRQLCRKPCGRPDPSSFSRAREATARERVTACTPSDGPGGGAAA

[5] = target: T2, mDOR; assay: CAMYEL BRET cAMP agonist assay at mDOR; assay type: cell-based; settings: for Agonist activity of 7OH analogs at mDOR: single replicate values, Supplementary Figure 7B
[6] = target: T3, mMOR (Mus musculus, UniProt P42866); assay: [125I]BNtxA radioligand competition binding, mouse MOR; settings: mean ± SEM, n = 3; [125I]BNtxA; read-out: Ki ± SEM mMOR
T3 construct: signal peptide (heterologous, not specified) (N); expressed in transfected cells; pcDNA3.1(+) construct made in house
T3 sequence (P42866 whole entry): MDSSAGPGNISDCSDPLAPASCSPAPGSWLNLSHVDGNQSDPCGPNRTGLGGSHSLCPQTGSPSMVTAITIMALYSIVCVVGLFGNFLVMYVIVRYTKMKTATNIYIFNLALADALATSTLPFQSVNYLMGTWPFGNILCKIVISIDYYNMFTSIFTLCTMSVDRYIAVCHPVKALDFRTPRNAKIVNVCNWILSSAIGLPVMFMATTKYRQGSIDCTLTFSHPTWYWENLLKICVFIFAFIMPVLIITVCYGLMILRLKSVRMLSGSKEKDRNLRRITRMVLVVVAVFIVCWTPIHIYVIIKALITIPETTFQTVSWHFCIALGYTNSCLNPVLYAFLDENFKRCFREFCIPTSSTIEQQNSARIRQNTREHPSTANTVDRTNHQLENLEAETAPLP

[7] = target: T3, mMOR; assay: CAMYEL BRET antagonism assay at mMOR (inhibition of DAMGO); assay type: cell-based;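 for Antagonist activity at mMOR, raw signal (single replicate values): BRET signal rises as cAMP falls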

CC[C@@H]1CN2CC[C@@]3(O)C(=Nc4cc(Cl)cc(OC)c43)[C@@H]2C[C@@H]1/C(=C\OC)C(=O)OC [11-Cl-7OH (23), 11-Cl-7OH]
EC50 [1]: 717 nM
Emax [1]: 23%
cAMP % ([1]; Log[drug] (M) -5): 24.2611% and 22.8658% and 18.7916% and 30.0534% and 27.3903% and 24.7857% and 23.2679% and 13.839% and 17.3142%
cAMP % ([1]; Log[drug] (M) -6): 9.687% and 7.44% and 12.4984% and 21.3658% and 16.0104% and 20.3589% and 22.2511% and 5.161% and 10.3498%
cAMP % ([1]; Log[drug] (M) -7): 10.7608% and 2.692% and 16.2864% and 16.6401% and 9.757% and 17.1458% and 11.7292% and -1.4445% and 4.302%
cAMP % ([1]; Log[drug] (M) -8): -0.5618% and -5.878% and 6.44% and 1.224% and 16.3686% and 4.4% and 2.431% and 4.114% and 14.2353%
cAMP % ([1]; Log[drug] (M) -9): 10.2691% and 5.0211% and 7.383% and 19.7872% and -6.277% and -5.837% and 8.258% and 7.437% and 22.4848%
cAMP % ([1]; Log[drug] (M) -10): 8.636% and -0.2251% and 3.667% and 1.365% and 3.739% and -5.1037% and -3.2997% and -3.028% and 15.0493%
cAMP % ([1]; Log[drug] (M) -11): 5.568% and -0.09872% and -1.208% and 11.7024% and 0.1582% and 4.468% and 2.344% and 1.001% and -3.345%
cAMP % ([1]; Log[drug] (M) -13, cAMP inhibition as % of DAMGO): 15.4388% and 3.989% and -0.7984% and 3.857% and -0.6743% and 5.111% and -4.4777% and 4.879% and 4.064%
Ki [2]: 47.2 ± 2.4 nM
analgesic effect in tail-flick [3]: no analgesic effect
Agonist activity of 7OH analogs at hDOR ([4]; Log[drug] (M) -5): 17.1397 and 15.6735 and 17.1747 and 8.18 and -3.544 and 1.305 and 21.6642 and 15.0671 and 20.6929
Agonist activity of 7OH analogs at hDOR ([4]; Log[drug] (M) -6): 30.6083 and 25.9231 and 32.3513 and 1.677 and 12.7082 and 9.625 and 17.2797 and 6.922 and 2.636
Agonist activity of 7OH analogs at hDOR ([4]; Log[drug] (M) -7): 15.9329 and 22.4846 and 15.3548 and 1.086 and 2.267 and 6.255 and -1.22 and -1.151 and 2.37
Agonist activity of 7OH analogs at hDOR ([4]; Log[drug] (M) -8): 13.6904 and 16.1168 and 10.9974 and 2.935 and -7.546 and 4.612 and 5.7671 and 0.4715 and 17.0267
Agonist activity of 7OH analogs at hDOR ([4]; Log[drug] (M) -9): 23.852 and 14.4843 and 22.6626 and 18.4578 and 15.1232 and 4.553 and 18.1791 and 11.0147 and 18.7534
Agonist activity of 7OH analogs at hDOR ([4]; Log[drug] (M) -10): 5.724 and 19.2021 and 4.266 and 3.553 and -1.827 and 11.1585 and 2.694 and 3.131 and 7.14
Agonist activity of 7OH analogs at hDOR ([4]; Log[drug] (M) -11): 7.339 and 12.4107 and 20.099 and 7.6883 and 4.754 and 8.248 and 8.188 and 1.326 and 2.427
Agonist activity of 7OH analogs at hDOR ([4]; Log[drug] (M) -13): -6.485 and 2.218 and 4.267 and 9.369 and -0.6447 and 11.9855 and 0.02092 and 7.539 and 4.083
Emax ([4]; hDOR cAMP BRET, positive control DPDPE): very low efficacy
Agonist activity of 7OH analogs at mDOR ([5]; Log[drug] (M) -5): 26.1167 and 29.2367 and 36.3699 and 32.2405 and 24.7678 and 31.8502 and 20.8066 and 14.4196
Agonist activity of 7OH analogs at mDOR ([5]; Log[drug] (M) -6): 24.5815 and 25.9676 and 37.4358 and 15.5242 and 17.7522 and 18.5933 and 15.1392 and 2.291 and 7.306
Agonist activity of 7OH analogs at mDOR ([5]; Log[drug] (M) -7): 31.8669 and 29.4684 and 27.3279 and 35.1303 and 15.7738 and 14.2288 and -2.321 and 1.192 and 1.129
Agonist activity of 7OH analogs at mDOR ([5]; Log[drug] (M) -8): 24.8631 and 32.1589 and 37.1926 and 12.9562 and 15.2093 and 7.166 and 10.5442 and -9.446 and 11.0136
Agonist activity of 7OH analogs at mDOR ([5]; Log[drug] (M) -9): 33.463 and 29.5442 and 24.9953 and 13.5309 and 13.5578 and 8.893 and 29.4233
Agonist activity of 7OH analogs at mDOR ([5]; Log[drug] (M) -10): 24.7821 and 18.2952 and 15.7891 and -5.277 and 4.222 and 6.7221 and 13.4439 and 1.454 and 8.443
Agonist activity of 7OH analogs at mDOR ([5]; Log[drug] (M) -11): 28.0105 and 19.9828 and 19.4476 and 11.3847 and -1.66 and -5.157 and 5.226 and 0.03212 and 8.89
Agonist activity of 7OH analogs at mDOR ([5]; Log[drug] (M) -13): -1.931 and 4.676 and 0.1543 and -4.31 and 4.156 and 0.5113 and 7.987 and 3.883
Emax ([5]; mDOR cAMP BRET, positive control DPDPE): very low efficacy
Ki [6]: 27.1 ± 1.1 nM
IC50 [7]: 320 nM
Antagonist activity at mMOR, raw signal (single replicate values) ([7]; Log[drug] (M) -5, source data of Fig 8a and Table 5, listed as C11-Cl-7OH (23)): 0.05136 and 0.05514 and 0.02734 and 0.03399 and 0.05638 and 0.03174 and 0.0604 and 0.04123 and 0.04243
